According to patent US20250367302A1, “SMALL MOLECULE DRUG-OLIGONUCLEOTIDE CONJUGATE AND USE THEREOF” (SHANGHAI JIAO TONG UNIVERSITY, priority 2022, published 2025):
d = 2'-deoxy (DNA); r = 2'-OH (RNA)

Tests used:
NFKBIZ mRNA = NFKBIZ mRNA expression by RT-qPCR in LPS-stimulated HCECs; type: cell-based, human; settings: LPS-stimulated (100 ng/mL) HCECs, 10 μM ASO or siRNA, without transfection reagent, 6 h + 48 h
Experimental: HCECs were inoculated in a 6-well plate at a density of 1×10^5 cells/well and cultured until adherence. The cells were then stimulated with 100 ng/mL lipopolysaccharide (LPS) overnight. After removing the supernatant, 1 mL of Opti-MEM medium containing ASONFKBIZ-h, ASONFKBIZ-h+Lipofectamine2000 (Lipo2000), and CsA-ASONFKBIZ-h (all containing 10 µM ASO) were added, respectively. Cells without any treatment were used as a blank reference (Mock). After incubation at 37° C. for 6 h, the cells were transferred into DMEM medium and incubated for another 48 h. The cells were collected and RNA was extracted for RT-qPCR to analyze the expression level of the NFKBIZ mRNA in HCECs, and experimental results were shown in FIG. 9. The expression level of NFKBIZ mRNA in HCECs after LPS stimulation was about 1.3 times that of normal cells. […] After adding CsA-ASONFKBIZ-h for co-incubation, the expression of NFKBIZ mRNA was reduced to about 0.8 times that of normal cells.
(§1) HCECs were inoculated in a 6-well plate at a density of 1×10^5 cells/well and cultured until adherence. The cells were then stimulated with 100 ng/mL LPS overnight. After removing the supernatant, 1 mL of Opti-MEM medium containing ASONFKBIZ-h+Lipo2000 complex and 2CsA-ASONFKBIZ-h nanomicelles (all containing 10 µM ASO) were added, respectively. After incubation at 37° C. for 6 h, the cells were transferred into DMEM medium and incubated for another 48 h. The cells were collected and RNA was extracted for RT-qPCR to analyze the expression level of the NFKBIZ mRNA in HCECs, and experimental results were shown in FIG. 12.
as §1, with “ng/ml” for “ng/mL”, “3CsA-ASONFKBIZ-h” for “2CsA-ASONFKBIZ-h”, “15.” for “12.”
HCECs were inoculated in a 6-well plate at a density of 1×10^5 cells/well and cultured until adherence. The cells were then stimulated with 100 ng/mL LPS overnight. 1 mL of Opti-MEM medium containing ASONFKBIZ-h+Lipo2000 complex and CsA3-ASONFKBIZ-h nanomicelles (all containing 10 µM ASO) were added, respectively. After incubation at […]. 37° C. for 6 h, the cells were transferred into DMEM medium and incubated for another 48 h. After collected and RNA was extracted for RT-qPCR to evaluate the expression level of NFKBIZ mRNA in HCECs, and the experimental results were shown in FIG. 23.
HCECs were inoculated in a 6-well plate at a density of 1×10^5 cells/well and cultured overnight until adherence. The cells were then stimulated with 100 ng/ml LPS for 12 h. After removing the supernatant, 1 mL of Opti-MEM medium containing siRNANFKBIZ-h+Lipo2000 complex and nCsA-siRNANFKBIZ-h (n=1, 2, 3) conjugates and nanomicelles (all containing 10 μM siRNA) were added, respectively. After incubation at 37° C. for 6 h, the cells were transferred into DMEM medium and incubated for another 48 h. The cells were collected and RNA was extracted for RT-qPCR to evaluate the expression of NFKBIZ mRNA in HCECs, and experimental results were shown in FIG. 27. […]

[1] = test system: Human corneal epithelial cells (HCECs); test: Cellular uptake of FITC-labelled conjugate by flow cytometry; type: cell-based
Experimental: Human corneal epithelial cells (HCECs) were inoculated at a density of 5×10^4 cells/well in a 12-well plate and cultured overnight. After the medium was removed, 0.5 mL of fresh medium containing 10 μM or 100 μM CsA-ASONFKBIZ-h conjugate with FITC fluorescence was added and incubated with HCECs for 6 h, while a well plate without conjugate was used as a blank control (Mock group). After the incubation, the supernatant medium was discarded, and then the cells were digested with trypsin and washed 2 to 3 times with phosphate-buffered saline (PBS, pH=7.2). After the cells were collected, flow cytometric analysis was conducted using a flow cytometer, and experimental results were shown in FIGS. 8A-8B.

[2] = test system: mice with xerophthalmia (0.2% benzalkonium chloride); test: Benzalkonium chloride xerophthalmia mouse model: sodium fluorescein staining and phenol red cotton thread tear test; type: in vivo, mouse (C57BL/6)
Experimental: The ocular xerophthalmia model was established in 6-8 weeks old mice (C57BL/6, Suzhou Xishan Biotechnology Co., Ltd.) with 0.2% benzalkonium chloride. 5 μL of 0.2% benzalkonium chloride was dripped into each eye of the mice, once in the morning and once in the evening every day, for two consecutive weeks. After successful modeling, the hospital-prepared CsA eye drops (400 µM CsA, referred to as hospital-prepared CsA eye drops or CsA eye drops, provided by the Eye, Ear, Nose and Throat Hospital Affiliated to Fudan University School of Medicine, Shanghai) and CsA-ASONFKBIZ-m (400 µM CsA) were used for eye drops treatment, 5 μL per eye, once in the morning and once in the evening. Sodium fluorescein staining and phenol red cotton thread tear secretion test were conducted on days 0, 7, and 14 of treatment to evaluate the therapeutic effect.
(§2) The ocular xerophthalmia model was established in 6-8 weeks old mice (C57BL/6, Suzhou Xishan Biotechnology Co., Ltd.) with 0.2% benzalkonium chloride. 5 μL of 0.2% benzalkonium chloride was dripped into each eye of the mice, once in the morning and once in the evening every day, for two consecutive weeks. After successful modeling, the hospital-prepared CsA eye drops (400 μM CsA, provided by the Eye, Ear, Nose and Throat Hospital Affiliated to Fudan University School of Medicine, Shanghai) and 2CsA-ASONFKBIZ-m (400 µM CsA) were used for eye drops treatment, 5 μL per eye, once in the morning and once in the evening. Sodium fluorescein staining and phenol red cotton thread tear secretion test were conducted on days 0, 7, and 14 of treatment to evaluate the therapeutic effect.
as §2, with “µM” for “μM”, “provided” for “provided by”, “3CsA-ASONFKBIZ-m nanomicelles (133 µM ASO concentration, 400” for “2CsA-ASONFKBIZ-m (400”
as §2, with “CsA3-ASONFKBIZ-m nanomicelles” for “2CsA-ASONFKBIZ-m”, “0” for “0, 7,”
The ocular xerophthalmia model was established in 6-8 weeks old mice (C57BL/6, Suzhou Xishan Biotechnology Co., Ltd.) using 0.2% benzalkonium chloride. 5 μL of 0.2% benzalkonium chloride was dripped into each eye of the mouse, once in the morning and once in the evening every day for two weeks. After successful modeling, the hospital-prepared CsA eye drops (400 µM CsA, provided by the Eye, Ear, Nose and Throat Hospital Affiliated to Fudan University School of Medicine, Shanghai) and CsA-siRNANFKBIZ-m (400 µM CsA), 2CsA-siRNANFKBIZ-m nanomicelles (400 µM CsA), 3CsA-siRNANFKBIZ-m nanomicelles (400 µM CsA) were used for eye drops treatment, 5 μL per eye, once in the morning and once in the evening. […]

[3] = eye drops 5 μL per eye twice daily, 400 μM CsA (10RAP: 400 μM rapamycin), day 14
[4] = xerophthalmia mice, baseline of the treatment group

Substance: CsA-ASONFKBIZ-h: single cyclosporin A (CsA-N3) click-coupled to 3′-DBCO ASO targeting human NFKBIZ gene (SEQ ID NO: 1) (ATCAGACAACGAATCGGGC; 3'-DBCO ASO click-conjugated to one cyclosporin A, sugar and linkages not given here, further chemistry not given here)
- expression of NFKBIZ mRNA relative to normal cells (NFKBIZ mRNA): about 0.8 times that of normal cells
- cellular uptake ([1]; 10 μM or 100 μM FITC-labelled conjugate, 6 h): effectively taken up by cells
- average fluorescence intensity of cells, 100 UM versus 10 μM conjugate ([1]; FITC-labelled conjugate, 6 h incubation, flow cytometry): approximately 10 times

Substance: 3CsA-ASONFKBIZ-h: three CsA molecules coupled to 3DBCO ASO targeting human NFKBIZ (SEQ ID 5), self-assembled (ATCAGACAACGAATCGGGCNTNTT; three CsA via DBCO click; modified_base 20 OTHER; n is t base modified with DBCO moiety; modified_base 22 OTHER)
- expression of NFKBIZ mRNA relative to normal cells (NFKBIZ mRNA): about 0.75 times that of normal cells

Substance: 2CsA-ASONFKBIZ-h: two CsA molecules coupled to 2DBCO ASO targeting human NFKBIZ (SEQ ID 3), self-assembled (ATCAGACAACGAATCGGGCNTT; two CsA via DBCO click; modified_base 20 OTHER; n is t base modified with DBCO moiety)
- expression of NFKBIZ mRNA relative to normal cells (NFKBIZ mRNA): about 0.8 times that of normal cells

Substance: CsA-siRNANFKBIZ-h: one CsA coupled to sense strand of siRNA targeting human NFKBIZ (SEQ ID NO: 9/10) (sense GCCCGAUUCGUUGUCUGAUTT; antisense AUCAGACAACGAAUCGGGCTT; sugars from the 5' end r19 d2, backbone not given here; DBCO clicked to azide-modified cyclosporin A, further chemistry not fully specified)
- expression of NFKBIZ mRNA relative to normal cells (NFKBIZ mRNA): level before LPS stimulation

Substance: 3CsA-ASONFKBIZ-m: three CsA molecules coupled to 3DBCO ASO targeting mouse NFKBIZ (SEQ ID 6), self-assembled (AATACTGGTACATTGACGCCNTNTT; three CsA via DBCO click; modified_base 21 OTHER; n is t base modified with DBCO moiety; modified_base 23 OTHER)
- phenol red cotton thread infiltration length (tear secretion) after 14 d of treatment [2, 3]: about 4 mm
- sodium fluorescein staining eye score after 14 d of treatment [2, 3]: about 4 points
- phenol red cotton thread infiltration length (tear secretion), day 0 (before treatment) [2, 4]: 1.3 mm
- sodium fluorescein staining eye score, day 0 (before treatment) [2, 4]: 10 points
